Reference: patent US9945845B2, “Methods of screening using amphibians” (priority 2009, dated 2018)
“Also recorded” adds a separate entry of the source. Where two headings read alike, the source gives them in different places.

Columns and labels:
Xenopus embryos = details: for Lethality: — = no stage of lethality given; for Embr. phen.: embryonic phenotype in the primary screen; for Type of edema Ventral: ‡ = edemas also detected in the gut; for Type of edema Periocular: * = causing bulging eyes, # = bilateral, causing narrow-set eyes
Method: 10-μl aliquots of the chemicals were transferred from the mother plates with a liquid handling robot (Aquarius, Tecan) into 96-well tissue culture plates to generate diluted stock plates (2 mM in DMSO; 50 μl final volume). […] Once embryos reached stage 31 (37 hpf), 10-μl aliquots of the diluted chemicals were added to the wells. […] Negative control wells contained embryos in screening medium and 0.1×MMR only. Embryos were treated with the chemicals in a humidified incubator at 23° C. over a timeframe of 4 days. Embryos were manually scored for the presence of edema or other morphological phenotypes using a teaching dissecting microscope (SV6; Carl Zeiss). Two investigators performed separately the scoring daily at stages 39 (56 hpf), 41 (76 hpf), 45 (98 hpf), and 47 (120 hpf). Dead embryos were removed and 100 μl of water was added daily to each well to compensate for fluid evaporation. […] For imaging at the end of the experiments. Xenopus tadpoles were anesthetized with 0.05% tricaine (Sigma #A5040) in 0.1×MMR. Images were captured using a stereomicroscope (SteREO Lumar V12; Carl Zeiss) equipped with a digital camera (AxioCam Color; Carl Zeiss).
Xenopus late tailbud embryos at stage 31 (37 hpf) were selected for compound treatment. […] Embryos were arrayed into 48-well dishes (five per well) and treated with test compounds at a concentration of 20 μM in the presence of 1% DMSO. […] All 48-well dishes also contained replicates of negative controls (1% DMSO). Embryos were monitored daily over a period of four days for edema formation. In addition, drug-induced lethality and other externally visible phenotypes were scored. On average, 320 compounds were screened per week.

[1] = tested on: blood vessel development and/or lymphangiogenesis in Xenopus embryos; assay type: in vivo, Xenopus laevis; details: for blood vessel development phenotype (apj expression, in words): 20 μM from stage 31, fixed at stage 35/36; for ISV phenotype: intersomitic vessels; for ISV phenotype / PCV phenotype / VVN phenotype / Blood vessel phenotype / ALH phenotype / ALS phenotype / PLV phenotype / Lymphatic phenotype: Xenopus embryos; for PCV phenotype: posterior cardinal vein; for VVN phenotype: vitelline vein network; for lymph vessel development phenotype (vegfr3 expression, in words): 20 μM from stage 31, fixed at stage 42; for ALH phenotype: anterior lymph heart; for ALS phenotype: anterior lymph sac; for PLV phenotype: posterior lymph vessels
Method: All chemicals were purchased from Sigma and 10-mM stock solutions in DMSO were prepared. Chemicals were used at a final concentration of 20 μM in screening medium to treat homozygous albino Xenopus embryos, which lack natural pigmentation. Chemical treatments of embryos (n=7 per well) was initiated at stage 31 (37 hpf) and terminated at stages 35/36 (50 hpf) or 42 (80 hpf). Embryos were fixed in 4% paraformaldehyde and processed for whole mount in situ hybridization.
Where albino embryos were used, the bleaching step was omitted. Semi-automated whole mount in situ hybridizations were performed using the Biolane HTI machine (Hölle & Hüttner AG, Germany). […] Images were captured using a stereomicroscope (SteREO Lumar V12; Carl Zeiss) equipped with a digital camera (AxioCam Color; Carl Zeiss). Composite figures were organized and labeled using Adobe Photoshop CS2 and Adobe Illustrator CS software.
Edema formation or late-stage lethality may result from excretory system defects, (cardio)vascular and/or lymphatic vascular pathologies. […] Embryos were fixed for in situ hybridization either at stage 35/36 to analyze vasculogenesis and intersomitic vein angiogenesis defects or at stage 42 to evaluate possible defects in lymph vessel development (FIGS. 3-5).

[2] = compounds causing lethality, 20 μM, 1% DMSO, treatment from stage 31, Nieuwkoop & Faber stage
[3] = compounds causing edema, 20 μM, 1% DMSO, treatment from stage 31, scored to stage 47
[4] = onset of edema, 20 μM, 1% DMSO, treatment from stage 31, Nieuwkoop & Faber stage
[5] = onset of pigmentation defects, 20 μM, 1% DMSO
[6] = compounds causing cytotoxicity, 20 μM, 1% DMSO, treatment from stage 31, Nieuwkoop & Faber stage

Compound: Clc1ccc(C(c2ccc(Cl)cc2)n2cc[n+](CC(OCc3ccc(Cl)cc3Cl)c3ccc(Cl)cc3Cl)c2)cc1 (stereo not shown) [Calmidazolium chloride]
- Lethality (NF) (Xenopus embryos; [2]): 37/38
- blood vessel development phenotype (apj expression, in words) [1]: promoting ectopic, premature angiogenesis; also recorded: ectopic sprouting phenotype was even more pronounced
- ISV phenotype [1]: ectopic
- PCV phenotype [1]: normal
- VVN phenotype [1]: hyperplastic

Compound: Cc1cc(N)c2ccccc2[n+]1CCCCCCCCCC[n+]1c(C)cc(N)c2ccccc21.[Cl-].[Cl-] [Dequalinium dichloride, 1,1′-Decamethylenebis(4-aminoquinaldinium) dichloride]
- Lethality (NF) (Xenopus embryos; [3]): 39 NF
- Type of edema Pericordial (Xenopus embryos; embryonic stage): 39 embryonic stages according to Nieuwkoop and Faber (NF)
- Lethality (Xenopus embryos; embryonic stage): 39 embryonic stages according to Nieuwkoop and Faber (NF)
- lymph vessel development phenotype (vegfr3 expression, in words) [1]: poorly developed, stunted lymphatics emerging from the ALS and ALH and hypoplastic PLV
- Blood vessel phenotype [1]: normal
- ALH phenotype [1]: stunted
- ALS phenotype [1]: stunted
- PLV phenotype [1]: hypoplastic

Compound: Cc1ccc(Cl)c(Nc2ccccc2C(=O)[O-])c1Cl.[Na+] [Meclotenamic acid sodium]
- Embr. phen. (Xenopus embryos): EDE
- ISV phenotype [1]: impaired
- PCV phenotype [1]: hypoplastic
- VVN phenotype [1]: hypoplastic

Compound: CC[C@H](C)C(=O)O[C@H]1CCC=C2C=C[C@H](C)[C@H](CC[C@@H]3C[C@@H](O)CC(=O)O3)[C@H]21 [Mevastatin]
- Lethality (NF) (Xenopus embryos; [3]): 45 NF
- Embr. phen. (Xenopus embryos): EDE
- Type of edema Pericordial (Xenopus embryos; embryonic stage): 35/36
- Lethality (Xenopus embryos; embryonic stage): 45 embryonic stages according to Nieuwkoop and Faber (NF)
- Type of edema Ventral (Xenopus embryos; embryonic stage): 41/42
- Onset (NF) (Xenopus embryos; [4]): 35/36
- lymph vessel development phenotype (vegfr3 expression, in words) [1]: lymphangiogenesis was largely suppressed
- Blood vessel phenotype [1]: normal
- ALH phenotype [1]: impaired
- ALS phenotype [1]: impaired
- PLV phenotype [1]: hypoplastic

Compound: O=C1C(SCCO)=C(SCCO)C(=O)c2ccccc21 [NSC 95397, 2,3-bis[(2-Hydroxyethyl)thio]-1,4-naphthoquinone]
- Lethality (NF) (Xenopus embryos; [2]): 40 NF
- ISV phenotype [1]: impaired
- PCV phenotype [1]: hypoplastic
- VVN phenotype [1]: hypoplastic

Compound: CC(C)[C@H](CO)Nc1nc(Nc2cccc(Cl)c2)c2ncn(C(C)C)c2n1 [Purvalanol A]
- Lethality (NF) (Xenopus embryos; [2]): 41/42
- Embr. phen. (Xenopus embryos): LET
- blood vessel development phenotype (apj expression, in words) [1]: only interfered with the assembly of the VVN
- Lymphatic phenotype [1]: normal
- ISV phenotype [1]: normal
- PCV phenotype [1]: normal
- VVN phenotype [1]: hypoplastic

Compound: CN(C)S(=O)(=O)c1ccc2c(c1)C(=Cc1cc3c([nH]1)CCCC3)C(=O)N2 [SU 6656, 2,3-Dihydro-N,N-dimethyl-2-oxo-3-[(4,5,6,7-tetrahydro-1H-indol-2-yl)methylene]-1H-indole-5-sulfonamide]
- Lethality (NF) (Xenopus embryos; [3]): 46 NF
- Type of edema Pericordial (Xenopus embryos; embryonic stage): 41/42
- Type of edema Proctodeal (Xenopus embryos; embryonic stage): 39/40
- Type of edema Pronephric (Xenopus embryos; embryonic stage): 39/40
- Type of edema Periocular (Xenopus embryos; embryonic stage): 41/42*
- Lethality (Xenopus embryos; embryonic stage): 46 embryonic stages according to Nieuwkoop and Faber (NF)
- Type of edema Ventral (Xenopus embryos; embryonic stage): 39/40
- Onset (NF) (Xenopus embryos; [4]): 39/40
- lymph vessel development phenotype (vegfr3 expression, in words) [1]: inhibiting preferentially lymphatic vascular development; also recorded: poorly developed, stunted lymphatics emerging from the ALS and ALH and hypoplastic PLV
- Blood vessel phenotype [1]: normal
- ALH phenotype [1]: dysplastic
- ALS phenotype [1]: stunted
- PLV phenotype [1]: hypopiastic

Compound: C#C[C@]1(O)CC[C@H]2[C@@H]3CCC4=Cc5nc6nc7ccccc7n6cc5C[C@]4(C)[C@H]3CC[C@@]21C [WIN 62,577, 17-beta-Hydroxy-17-alpha-ethynyl-delta-4-androstano(3,2-b)pyrimido(1,2-a)benzimidazole]
- Lethality (NF) (Xenopus embryos; compounds causing pigmentation defects, 20 μM, scored to stage 47): 42 NF
- Onset (NF) (Xenopus embryos; [5]): 33/34

Compound: COC[C@H]1OC(=O)c2coc3c2[C@@]1(C)C1=C(C3=O)[C@@H]2CCC(=O)[C@@]2(C)C[C@H]1OC(C)=O [Wortmannin from Penicillium funiculosum, Wortmannin]
- Lethality (NF) (Xenopus embryos; [6]): 33/34

Compound: OCc1ccc(-c2nn(Cc3ccccc3)c3ccccc23)o1 [YC-1, 3-(5′-Hydroxymethyl-2′-fulyl)-1-benzyl indazole]
- Embr. phen. (Xenopus embryos): EDE
- Onset (NF) (Xenopus embryos; [4]): 45 NF
- blood vessel development phenotype (apj expression, in words) [1]: dispersed, punctuated patterns of VVN endothelia
- Lymphatic phenotype [1]: normal
- ISV phenotype [1]: normal
- PCV phenotype [1]: normal
- VVN phenotype [1]: hypoplastic

Compound: COc1cc(-c2ccc(=O)[nH]n2)ccc1OC(F)F [Zardaverine, 6-(4-Difluoromethoxy-3-methoxyphenyl)-3(2H)-pyridazinone]
- Lethality (NF) (Xenopus embryos; [3]): 43 NF
- Type of edema Pericordial (Xenopus embryos; embryonic stage): 39/40
- Type of edema Pronephric (Xenopus embryos; embryonic stage): 41/42
- Lethality (Xenopus embryos; embryonic stage): 43 embryonic stages according to Nieuwkoop and Faber (NF)
- Onset (NF) (Xenopus embryos; [4]): 39/40
- blood vessel development phenotype (apj expression, in words) [1]: only interfered with the assembly of the VVN
- ISV phenotype [1]: normal
- PCV phenotype [1]: normal
- VVN phenotype [1]: hypoplastic

Compound: C[C@]12CC[C@@H]3c4ccc(O)cc4CC[C@H]3[C@@H]1CC[C@@H]2O [beta-Estradiol]
- Type of edema Periocular (Xenopus embryos; embryonic stage): 42 # embryonic stages according to Nieuwkoop and Faber (NF)
- Onset (NF) (Xenopus embryos; [4]): 42 NF

Compound: CC1(C)CCC2=C(O1)c1ccccc1C(=O)C2=O [beta-Lapachone]
- Lethality (NF) (Xenopus embryos; [6]): 32 NF

Compound: C[C@H](NC(=O)Cc1cc(F)cc(F)c1)C(=O)N[C@H]1N=C(c2ccccc2)c2ccccc2N(C)C1=O [compound E]
- edema or other phenotype in compound-treated Xenopus embryos/tadpoles (in words) (Xenopus embryos; 20 μM, 1% DMSO, treatment from stage 31): potently induces edemas

Compound: C[C@]12CC[C@H](O)CC1=CC[C@@H]1[C@@H]2CC[C@]2(C)C(=O)CC[C@@H]12 [trans-Dehydroandrosterone, 5-Androsten-3beta.ol-17-one]
- Onset (NF) (Xenopus embryos; onset of other phenotypic defects, 20 μM, 1% DMSO): 41/42

Compound: Dequalinium analog, C-14 linker
- Lethality (NF) (Xenopus embryos; [6]): 32 NF

Compound: Ivermectin
- Lethality (NF) (Xenopus embryos; [2]): 41/42

Compound: R(-)-Propylnorapomorphine hydrochloride
- Onset (NF) (Xenopus embryos; [5]): 33/34
